The substances below were run on Listeria innocua 33090 (assay: colony overlay assay of peptide-secreting E. coli clones (library screening and re-test)). Settings: library screening; selected colonies pooled by zone size; peptides identified by 454 sequencing, full-length sequences with minimum 20 reads.
Format: cell-based
Design: key: higher activity group (H); equal activity group (E); lower activity group (L)
Procedure: For the in vivo production of AMPs, we have employed an E. coli expression system that relies on periplasmic-expression of recombinant peptides in a host cell that lacks the lpo membrane protein, thus releasing the peptides present in the periplasmic space outside the cells. When the producer cells are grown into colonies on a solid substrate, it leads to accumulation of the recombinant peptides around the colony and allows for easy library screening. The screening assay used in this study was a modified version of the standard agar diffusion method as previously described. Library-transformed E. coli colonies are overlaid with a tester strain and incubated overnight to allow for peptide expression and tester strain growth. Next day, the plates are inspected for the formation of clear growth inhibition zones around E. coli colonies, which is an indication of active AMP production by the host colony.
For the construction of Pln-423 mutant library in E. coli, the expression system that consists of a periplasmic-leaky E. coli strain JE5505 and the expression plasmid pFLAG-CTS was employed for direct screening of peptide activities. It should be noted here that this plasmid contains ompA secretion signal sequence and cleavage of this sequence results in a serine residue at the N-terminal of all mature peptides. A total of 1.0×10^5 colonies, approximately 8-fold coverage of the library, were screened against Listeria innocua 33090 in five separate screening experiments. L. innocua was previously deemed as a suitable indicator for pathogenic L. monocytogenes displaying similar bacteriocin sensitivity, therefore it was used as a surrogate strain throughout this study. The selection process involved two criteria; 1) the size of the each inhibition zone was compared to that of wild-type Pln-423 as a correlation to anti-listerial activity level, 2) when several colonies formed inhibition zones that are very similar in size and character, only a few from each group were selected. The colonies were pooled into three groups based on their activities, giving 43 clones in a higher activity group (H), 81 clones in an equal activity group (E), and 241 clones in a lower activity group (L). Their plasmids were extracted from each activity group and analyzed by both Sanger and 454 high-throughput sequencing to identify peptide sequences.
These clones were also re-tested by colony overlay assay to compare their activities to wild-type Pln-423 based on the size of the inhibition zone around each clone (Figure 2-A). Based on this assay, all ten plantaricin mutants formed larger inhibition zones (10.3±0.5 to 11.4±0.3 mm zone diameter) compared to wild-type Pln-423 (6.2±0.2 mm) against L. innocua 33090. Out of those ten, three clones have a single mutation and […] clones have two mutations and the remaining single clone has three mutations. […] Positions like Ser23, Ser27, His28, and Lys36 were commonly mutated with similar amino acids indicating their potential role on higher peptide activity.
The screening method used in this study was a modified version of the standard colony overlay method as previously described. All the chemicals and growth media supplements were obtained from either Sigma-Aldrich or Fisher Scientific unless otherwise stated. Transformed E. coli JE5505 cells were diluted to 3000–5000 cfu (determined empirically prior to screening by plating serial dilutions of E. coli suspensions of a known absorbance and counting the colonies after incubation) in 25 ml LB soft agar (0.8%, 45°C) per screening plate and poured into 150 mm petri dishes. Once the media was solidified, they were overlaid with 10 ml LB soft agar (45°C) and incubated at 37°C for 24 h for host-colony formation. Next day, these plates were re-overlaid with 10 ml TSB soft agar containing 1 mM IPTG and the indicator strain Listeria innocua ATCC 33090 (diluted to OD600 = 0.03). […]

Row | Substance | activity group by size of inhibition zone compared to wild-type Pln-423
1 | KYYGNGVTCGKHSCSVNWGQAFSCSVTHLANFGHGKC* [Pep-1_57] | L and E
2 | KYYGNGVTCGKHSCSVNWGQAFSCSVAHLANFGHGKC* [Pep-1_59] | L
3 | KYYGNGVTCGKHSCSVNWGEAFSCSVHHLANFGHGKC* [Pep-2_5876] | E
4 | KYYGNGVTCGKHSCSVNWGQAFSCSVSRLANFGEGKC* [Pep-2_6602] | H
5 | KYYGNGVTCGKHSCSVNWGQAFSCSVSHLANFGHRAC* [Pep-2_11153] | L
6 | KYYGNGVTCGKHSCSVNWGQAFSCSVSWLANFGHGKC* [GROUP L-UM-12] | L
7 | KYYGNGVTCGKHSCSVNWGQAVSCSVSHLANFGHGKC* [Pep-1_28] | E
8 | KYYGNGVTCGKHSCSVNWGQAFSCAVSALANFGHGKC* [Pep-2_5057] | L
9 | KYYGNGVTCGKHSCSVNWGEAFSCAVSHLANFGHGKC* [Pep-2_5012] | E
10 | KYYGNGVTCGKHSCSVNWGQAFSCSVHHLANFGHGKC* [Pep-1_55] | L
11 | KYYGNGVTCGKHSCSVNWGQAFSCSVSHLANFGHGKC* [GROUP E-UM-11] | E
12 | KYYGNGVTCGKHSCSVNWGQAFSCSVSSLANFGHGKC* [GROUP E-UM-3] | E
13 | KYYGNGVTCGKHSCSVNWGQAFSCSVSWLANFGSGKC* [Pep-2_10680] | L
14 | KYYGNGVTCGKHSCSVNWGQAFSCHVSHLANFGHGKC* [Pep-1_43] | L
15 | KYYGNGVTCGKHSCSVNWGQAFSCSVEHLANFGHAKC* [Pep-2_6071] | E
16 | KYYGNGVTCGKHSCSVNWGQAFSCGVSHLANFGHGKC* [GROUP E-UM-7] | E
17 | KYYGNGVTCGKHSCSVNWGQAFSCSVSHWANFGHGKC* [GROUP L-UM-32] | L
18 | KYYGNGVTCGKHSCSVNWGQAFSCVWSHLANFGHGKC* [Pep-2_4938] | L
19 | KYYGNGVTCGKHSCSVNWGQAFECSVSWLANFGHGKC* [Pep-2_3438] | L
20 | KYYGNGVTCGKHSCSVNWGQAFVCSVRHLANFGHGKC* [Pep-2_3643] | L
21 | KYYGNGVTCGKHSCSVNWGKAFSCGVSHLANFGHGKC* [Pep-2_1367] | L

Row | Substance | activity group by size of inhibition zone compared to wild-type Pln-423
22 | KYYGNGVTCGKHSCSVNWGQAFSCSVNVLANFGHGKC* [Pep-2_6891] | L
23 | KYYGNGVTCGKHSCSVNWNQAFYCSVSHLANFGHGKC* [Pep-2_921] | L
24 | KYYGNGVTCGKHSCSVNWGQAFSCSVSALANFGHGRC* [Pep-2_7045] | L
25 | KYYGNGVTCGKHSCSVNWGQAFSCNVSHLANFGHGVC* [Pep-2_4888] | L and H
26 | KYYGNGVTCGKHSCSVNWGQAFSCSVSNLANFGRGKC* [Pep-2_6817] | L
27 | KYYGNGVTCGKHSCSVNWGQAFVCSVSHLANFGHGKC* [Pep-1_34] | L and E
28 | KYYGNGVTCGKHSCSVNWGQAFDCSVSHLANFGHGKC* [GROUP L-UM-4] | L
29 | KYYGNGVTCGKHSCSVNWGQAFSCSVDHLANFGHGKC* [GROUP H-UM-2] | H
30 | KYYGNGVTCGKHSCSVNWGQWFSCSVSHLANFGMGKC* [Pep-2_10746] | L
31 | KYYGNGVTCGKHSCSVNWGQGFSCAVSHLANFGHGKC* [Pep-2_2447] | L
32 | KYYGNGVTCGKHSCSVNWGQAFSCSVSHLA*FGHGKC* [GROUP L-UM-33] | L
33 | KYYGNGVTCGKHSCSVNWGQAFSCTVSHLANFGHGKC* [GROUP L-UM-28] | L
34 | KYYGNGVTCGKHSCSVNWGQAFSCSVVHIANFGHGKC* [Pep-2_6250] | H
35 | KYYGNGVTCGKHSCSVNWGQAFSCSVEHLANFGHGKC* [Pep-1_56] | E and H
36 | KYYGNGVTCGKHSCSVNWGQAFCCSVSHLANFGHGSC* [Pep-2_11946] | L
37 | KYYGNGVTCGKHSCSVNWGQAFACSVSHLANFGHGWC* [Pep-2_12269] | L
38 | KYYGNGVTCGKHSCSVNWGWAFSCSVSHLANFGHGKC* [Pep-1_18] | L
39 | KYYGNGVTCGKHSCSVNWGEAFVCSVSHLANFGHGKC* [Pep-2_3608] | E
40 | KYYGNGVTCGKHSCSVNWGQAVSCSVHHLANFGHGKC* [GROUP E-UM-6] | E
41 | KYYGNGVTCGKHSCSVNWAQGFSCSVSHLANFGHGKC* [Pep-2_1127] | L
42 | KYYGNGVTCGKHSCSVNWGQAGSCVVSHLANFGHGKC* [Pep-2_4919] | L

Row | Substance | activity group by size of inhibition zone compared to wild-type Pln-423
43 | KYYGNGVTCGKHSCSVNWGQAFSCSVSHLANIGHGEC* [Pep-2_11890] | L
44 | KYYGNGVTCGKHSCSVNWGQAFSCVVRHLANFGHGKC* [Pep-2_4939] | L
45 | KYYGNGVTCGKHSCSVNWGQAFECSVSRLANFGHGKC* [Pep-2_3433] | E
46 | KYYGNGVTCGKHSCSVNWGQAFECSVSHLANFGHNKC* [Pep-2_3477] | L
47 | KYYGNGVTCGKHSCSVNWGQAFSCHVDHLANFGHGKC* [Pep-2_4616] | E
48 | KYYGNGVTCGKHSCSVNWGQAFSCSVSHLANFGHGEC* [Pep-1_110] | H
49 | KYYGNGVTCGKHSCSVNWGQAFSCSVSHLANFGHGKC* [GROUP L-UM-27] | L
50 | KYYGNGVTCGKHSCSVNYGQLFSCSVSHLANFGHGKC* [GROUP L-UM-22] | L
51 | KYYGNGVTCGKHSCSVNWGQAFSCSVDHLANFGHGHC* [Pep-2_11750] | H
52 | KYYGNGVTCGKHSCSVNWGQAFSCSVEHLANFGHNKC* [Pep-2_11318] | H
53 | KYYGNGVTCGKHSCSVNWGQAFSCSVSHLANFGFGWC* [Pep-2_12334] | L
54 | KYYGNGVTCGKHSCSVNWGQAFSCSVSRLAAFGHGKC* [Pep-2_6587] | L
55 | KYYGNGVTCGKHSCSVNWGQAFSCHVSTLANFGHGKC* [Pep-2_4623] | L
56 | KYYGNGVTCGKHSCSVNWGQAFSCSVHRLANFGHGKC* [Pep-2_5917] | L
57 | KYYGNGVTCGKHSCSVNWGQAFSCSVSRVANFGHGKC* [Pep-2_6574] | L
58 | KYYGNGVTCGKHSCSVNWGQAFSCSVSVLANFGNGKC* [Pep-2_6927] | H
59 | KYYGNGVTCGKHSCSVNWGQAIVCSVSHLANFGHGKC* [Pep-2_3622] | L
60 | KYYGNGVTCGKHSCSVNWGQAFSCSVRHLANFGHGEC* [Pep-2_11857] | L
61 | KYYGNGVTCGKHSCSVNYGQAFACSVSHLANFGHGKC* [Pep-2_257] | L

Source: publication PMC3602187, “From Design to Screening: A New Antimicrobial Peptide Discovery Pipeline” (PLoS ONE, 2013)
